One series has as its system acatol-1. As to the kind of experiment: Antitumor activity, large intestine adenocarcinoma acatol-1. Type of series: in vivo, mice. The method, then:
(§1) Apart from the tests on Ehrlich ascitic tumor, giniquine was studied on twelve more inoculated tumors. Seven tumors (melanoma B16, sarcoma AK, large intestine carcinoma acatol-1, sarcoma 180, adenocarcinoma 755, Lewis lung carcinoma and sarcoma 37) were inoculated subcutaneously with 50 mg of tumoral cells per mouse. Four tumors (lymphatic leukemies L 5178, L 5178Y, L 1210 and P-388) were inoculated intraperitoneally with 10^6 cells per mouse. One tumor (La, hemocytoblastosis) was inoculated intraperitoneally by injecting 50 mg of cell suspension of spleen and liver of mice suffering La hemocytoblastosis, per mouse. Giniquine was injected intraperitoneally five times for seven days: 1,2,3,4,7 days or 3,4,5,6,7 days after the implantation of tumor. The rate of deceleration of the tumor growth was established 14 days after the ultimate injection of giniquine; life of test animals was recorded for 60 days.

Another series deals with sarcoma 180. As to the kind of experiment: Antitumor activity, sarcoma 180. It counts as in vivo, mice. How it is done: as §1
For series [1], the system named is Ehrlich ascitic tumor. In words: Antitumor activity, life prolongation of mice with Ehrlich ascitic tumor. It counts as in vivo. The method, then: The experiment was conducted as follows. 10^6 cells of Erlich tumuor were injected in common white mice intraperitoneally, the dose being given per each animal. […] Each dose of the preparation was tested in six mice. The control group included 18 mice. Giniquine solution was prepared by dissolving the substance ex tempore in distilled water or in a buffer. The effect of the preparation is shown on charts 1,2,3.

The subject of series [2] is lymphatic leukemia L 5178. In words: Antitumor activity, life prolongation, lymphatic leukemia L 5178. Type of series: in vivo, mice. How it is done:
as §1

Another series deals with sarcoma 37. In words: Antitumor activity, life prolongation, sarcoma 37. Type of series: in vivo, mice. The method, then:
as §1

Series [3] concerns Jensen sarcoma. In words: Growth deceleration / antitumor activity, Jensen sarcoma. It counts as in vivo. Particulars: peroral administration. The text has this: (§2) An antiblastic effect is caused by products of condensation of aldehydes of the nitrofuran series with (β-hydrazinoethyl)pyridine, 3-hydrazino-4-amino-1,2,4-triazole [Giller S. A., Kalnberga R. Yu., Zidermane A. A. et al. In the book "Methods of Synthesis and Search for Antitumor Preparations" (in Russian). Iss. 2. M. 1967. pp. 75-81; Giller S. A. et al. In the book "Furozolidine". (in Russian). Riga, 1962. pp. 5-18; Duavarte A. Zh., Zidermane A. A., Kravchenko I. M. et al. In the book "Proceedings of the 1st All-Union Conference on Chemotherapy of Malignant Tumors." Riga. 1968. pp. 216-217; Duavarte A. Zh. et al. In the book "Antitumor Compounds of the 5-nitrofuran Series." (in Russian). Riga, 1972. pp. 17-30)] and 5-aminobenzimidazol [Fuska J., Fuskova A., Jurasek A. "Neoplasma (Bratisl.)". 1973. v. 20. pp. 171-179].
(§3) "J. Pharm. Soc. Japan." 1964, 84(6). pp. 537-543; K. Miura, I. Okada. "Chem. Pharm. Bull." 1965. 13 (15). pp. 525-528].

In a further series the test system is Pliss lymphosarcoma. In words: Antitumor activity, Pliss lymphosarcoma. Type of series: in vivo. Particulars: peroral administration.
Description: as §3

The conditions of series [4]: in vivo; cited from earlier work.
Series [5] concerns Walker carcinosarcoma. In words: Growth deceleration / antitumor activity, Walker carcinosarcoma. It counts as in vivo. Particulars: peroral administration.
Description: as §2, §3

The next series has as its system adenocarcinoma 755. As to the kind of experiment: Antitumor activity, adenocarcinoma 755. Type of series: in vivo, mice. Particulars: daily doses of 10 and 17 mg/kg. How it is done: as §1
The conditions of series [6]: in vivo; cited from earlier work. The source holds these as a separate data set.
Series [7] relates to Jensen sarcoma. The settings on record: cited from earlier work.
In series [8] the test system is Walker carcinosarcoma. The settings on record: cited from earlier work.
The test system of another series is La hemocytoblastosis. As to the kind of experiment: Antitumor activity, La hemocytoblastosis. It counts as in vivo, mice. Particulars: 10 mg/kg. How it is done:
as §1

Series [9] relates to Ehrlich ascitic tumor. As to the kind of experiment: Influence of fluorafur on antitumor activity of giniquine, Ehrlich ascitic tumor. Type of series: in vivo, mice. How it is done:
In some experiments the influence of the known preparation fluorofur on the antitumoral activity of giniquine was studied. […] The tests were made on Ehrlich ascitic tumor. The preparations were injected 1,2,3,4 and 7 days after the implantation of tumor. Giniquine was injected intraperitoneally and fluorafur-subcutaneously.
giniquine was injected intraperitoneally, and fluorafursubcutaneously.

Another series relates to sarcoma AK. As to the kind of experiment: Antitumor activity, sarcoma AK. It counts as in vivo, mice. How it is done: as §1
The next series deals with melanoma B16. In words: Antitumor activity, melanoma B16. The settings on record: 17 mg/kg. It counts as in vivo, mice. The method, then: as §1, with “Giniquine was injected intraperitoneally five times for seven days: 1,2,3,4,7 days or 3,4,5,6,7 days after the implantation of tumor.” left out
The next series has as its system Lewis lung carcinoma. As to the kind of experiment: Antitumor / antimetastatic activity, Lewis lung carcinoma. It counts as in vivo, mice. Particulars: daily doses of 6 and 10 mg/kg. How it is done: as §1

The values below come from US4201784A, “Substituted 2-[2'-(5"-nitrofuryl-2")vinyl-and 4'-(5"-nitrofuryl-2"-1,3-butadieryl]quinoline-4-carboxylic acid amides and salts thereof” (Institut Organicheskogo Sinteza Akademii Nauk Latviiskoi SSR, priority 1977, dated 1980).

For the compound `CCN(CC)CCCC(C)NC(=O)c1cc(C=CC=Cc2ccc([N+](=O)[O-])o2)nc2ccccc12` (stereo not drawn) [2-[4'-(5"-nitrofuryl-2")-1,3-butadienyl]quinoline-4-carboxylic acid (α-methyl-δ-diethylaminobutyl)amide diphosphate], the “antitumor effect / sensitivity (in words)” value in the series with acatol-1 (acatol-1) and in the series on sarcoma 180 (sarcoma 180) was “a certain sensitivity” throughout. The prolongation of life is reported as 60 to 160% with Ehrlich ascitic tumor [1] (doses of 3.6-10 mg/kg) and “up to 120%” in the series with sarcoma 37 (daily dose of 17 mg/kg, intraperitoneal). Also, the “antiblastic activity / sensitivity (in words)” value in series [2] (lymphatic leukemia L 5178) was “a certain sensitivity”.
With `NC(=O)c1cc(C=Cc2ccc([N+](=O)[O-])o2)nc2ccccc12` [2-[2'-(5"-nitrofuryl-2")vinyl]quinoline-4-carboxylic acid amide], the antitumor activity result with Jensen sarcoma [3], with Pliss lymphosarcoma and in the series on Walker carcinosarcoma [5] was “not found any antitumor activity” in each case. Moreover, the antitumoral activity entry in series [4] was “a very narrow range of antitumoral activity”.
In the case of `CCN(CC)CCCC(C)NC(=O)c1cc(C=Cc2ccc([N+](=O)[O-])o2)nc2ccccc12` (stereo not drawn) [2-[2'-(5"-nitrofuryl-2")vinyl]quinoline-4-carboxylic acid (α-methyl-δ-diethylaminobutyl)amide diphosphate], the prolongation of life result with adenocarcinoma 755 was “up to 20%”; in the series on sarcoma 180 (daily doses of 10 and 17 mg/kg), “up to 20%”; in the series with Ehrlich ascitic tumor [1] (3-5 intraperitoneal injections, daily doses 10 to 28 mg/kg) it was 140 to 180%; in [2] (lymphatic leukemia), “up to 130%”.
Turning to `CCN(CC)CCCC(C)NC(=O)c1cc(C=Cc2ccc([N+](=O)[O-])o2)nc2ccccc12` (stereo not drawn) [2-[2'-(5"-nitrofuryl-2")vinyl]quinoline-4-carboxylic acid (α-methyl-δ-diethylaminobutyl)amide chloride], in the series on Ehrlich ascitic tumor [1] (single intraperitoneal injection, 6 mg/kg, 7 days after inoculation), the prolongation of life is recorded as 85%.
In the case of `O=Cc1ccc([N+](=O)[O-])o1` [5-nitrofurfural], the “acute toxicity compared with 5-nitrofuran” value in series [6] is recorded as “a higher acute toxicity”. In addition, the “activity compared with 5-nitrofuran” value with Jensen sarcoma [7] and with Walker carcinosarcoma [8] was “about the same activity” in each case.
As to `O=P1(N(CCCl)CCCl)NCCCO1` (stereo not shown) [cyclophosphane, reference compound], in the series with Ehrlich ascitic tumor [1] (Ehrlich ascitic tumor), the “increase in mice life” value worked out at 0%.
As for `CCN(CC)CCCC(C)NC(=O)c1cc(C=Cc2ccc([N+](=O)[O-])o2)nc2ccccc12` (stereo not drawn) [2-[2'-(5"-nitrofuryl-2")vinylquinoline]-4-carboxylic acid (α-methyl-δ-diethylaminobutyl)amide dibromide], in the series with Ehrlich ascitic tumor [1] (single intraperitoneal injection, 28 mg/kg, 7 days after inoculation), the prolongation of life stood at 85%.
`O=[N+]([O-])c1ccco1` [Example 5-nitrofuran, 5-nitrofuran]: the deceleration of growth with Jensen sarcoma [7] and in the series on Walker carcinosarcoma [8] was 39-51% throughout.
As for `O=C(NCCCO)c1cc(C=CC=Cc2ccc([N+](=O)[O-])o2)nc2ccccc12` [[4'-(5"-nitrofuryl-2")-1,3-butadienyl]quinoline-4-carboxylic acid (γ-hydroxypropyl)amide], the prolongation of life result in the series with acatol-1 (10 mg/kg) is given as “about 20%”; in the series with Ehrlich ascitic tumor [1] (17 mg/kg) it was “up to 80%”; in [2] (1 mg/kg) it was “up to 40%”; in the series on La hemocytoblastosis, “about 20%”.
Take `O=c1[nH]c(=O)n(C2CCCO2)cc1F` (stereo not shown) [fluorafur, reference compound]: the Life prolongation was 35% in the series on Ehrlich ascitic tumor [9] (Test No. 1, fluorafur 39.0 mg/kg daily); 37% in the series with Ehrlich ascitic tumor [9] (Test No. 1, fluorafur 65.0 mg/kg daily); 40% in the series with Ehrlich ascitic tumor [9] (Test No. 1, fluorafur 108.0 mg/kg daily); 52% with Ehrlich ascitic tumor [9] (Test No. 1, fluorafur 180.0 mg/kg daily); 18% in the series with Ehrlich ascitic tumor [9] (Test No. 2, fluorafur 39.0 mg/kg daily); -5% in the series with Ehrlich ascitic tumor [9] (Test No. 2, fluorafur 65.0 mg/kg daily). The Life prolongation is recorded as -17% with Ehrlich ascitic tumor [9] (Test No. 2, fluorafur 108.0 mg/kg daily) and -33% in the series with Ehrlich ascitic tumor [9] (Test No. 2, fluorafur 180.0 mg/kg daily).
In the case of `CCN(CC)CCCC(C)NC(=O)c1cc(C=Cc2ccc([N+](=O)[O-])o2)nc2ccccc12` (stereo not drawn) [2-[2'-(5"-nitrofuryl-2")vinyl]quinoline-4-carboxylic acid (α-methyl-δ-diethylaminobutyl)amide], the prolongation of life result in the series with sarcoma AK (sarcoma AK) is recorded as “up to 20%”; with melanoma B16 it was “up to 25%”; with Lewis lung carcinoma, 30%; in the series on sarcoma 180 (sarcoma 180) it was “up to 20%”; in the series on Ehrlich ascitic tumor [1] (three injections, 10 and 17 mg/kg) it was 70 to 130%; in series [2] (6 to 28 mg/kg), 30 to 140%.
On to `O=C(NCCCO)c1cc(C=Cc2ccc([N+](=O)[O-])o2)nc2ccccc12` [2-[2'-(5"-nitrofuryl-2")vinyl]quinoline-4-carboxylic acid (γ-hydroxypropyl)amide], for which the prolongation of life entry in the series with sarcoma AK (2.8 mg/kg) is “up to 20%”; in the series on Ehrlich ascitic tumor [1] (7.5 mg/kg to 12.5 mg/kg, five injections), “up to 120%”; in series [2] (lymphatic leukemia L 5178), “up to 40%”; in the series on sarcoma 37 (12.5 mg/kg), 90%.
